From PubChem BioAssay AID330 (DTP/NCI, 2004)
“And” between values parts separate entries of the source, which are not always exact repeats. Equal entries are not always repeated. Inconclusive results and toxic doses are left out. Rule for the calls: active = survival T/C of 150% or more; inactive = T/C below 125% in these data.

System: P388 leukemia ip, CD2F1 mice, survival T/C
Assay: NCI In Vivo Anticancer Drug Screen. Data for tumor model P388 Leukemia (intraperitoneal) in CD2F1 (CDF1) mice
Settings: endpoint: median survival time, higher = longer survival
Method in brief: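 Mice carrying the transplanted tumor received test compound or vehicle. Survival was recorded in each group, and the value is the treated-group measurement divided by that of the vehicle-treated control group.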

[1] = dose: 50.0 mg/kg/injection, schedule: Q01DX005 (ip), vehicle: Klucel (hydroxypropylcellulose) (HPC)
[2] = dose: 100.0 mg/kg/injection, schedule: Q01DX005 (ip), vehicle: Klucel (hydroxypropylcellulose) (HPC)
[3] = dose: 200.0 mg/kg/injection, schedule: Q01DX005 (ip), vehicle: Klucel (hydroxypropylcellulose) (HPC)
[4] = dose: 50.0 mg/kg/injection, schedule: Q01DX009 (ip), vehicle: saline with Tween-80
[5] = dose: 100.0 mg/kg/injection, schedule: Q01DX009 (ip), vehicle: saline with Tween-80
[6] = dose: 60.0 mg/kg/injection, schedule: Q01DX005 (ip), vehicle: saline with Tween-80
[7] = dose: 120.0 mg/kg/injection, schedule: Q01DX005 (ip), vehicle: saline with Tween-80
[8] = dose: 240.0 mg/kg/injection, schedule: Q01DX005 (ip), vehicle: saline with Tween-80

Measured: T/C

COc1cc2c(cc1OC)C(=O)c1ncccc1C2=O
inactive: dose: 12.5 mg/kg/injection, schedule: Q01DX009 (ip), vehicle: other 104 % of control | dose: 25.0 mg/kg/injection, schedule: Q01DX009 (ip), vehicle: other 100 % of control | dose: 50.0 mg/kg/injection, schedule: Q01DX009 (ip), vehicle: other 99 % of control | dose: 100.0 mg/kg/injection, schedule: Q01DX009 (ip), vehicle: other 90 % of control | dose: 200.0 mg/kg/injection, schedule: Q01DX009 (ip), vehicle: other 89 % of control

COc1ccc2c(Cc3ccccc3)c3[n+](cc2c1OC)CCc1cc2c(cc1-3)OCO2
inactive: dose: 1.56 mg/kg/injection, schedule: Q01DX005 (ip), vehicle: Klucel (hydroxypropylcellulose) (HPC) 113 % of control | dose: 3.12 mg/kg/injection, schedule: Q01DX005 (ip), vehicle: Klucel (hydroxypropylcellulose) (HPC) 115 % of control | dose: 6.25 mg/kg/injection, schedule: Q01DX005 (ip), vehicle: Klucel (hydroxypropylcellulose) (HPC) 113 % of control and 115 % of control | dose: 12.5 mg/kg/injection, schedule: Q01DX005 (ip), vehicle: Klucel (hydroxypropylcellulose) (HPC) 118 % of control

CC(C)(C)Oc1ccc(CC(NC(=O)OCC2c3ccccc3-c3ccccc32)C(=O)O)cc1 (stereo not drawn)
inactive: dose: 25.0 mg/kg/injection, schedule: Q01DX005 (ip), vehicle: Klucel (hydroxypropylcellulose) (HPC) 107 % of control | [1] 107 % of control and 109 % of control | [2] 120 % of control | [3] 104 % of control and 120 % of control

NC(=O)c1nnn2c1nc(N)c1ccccc12
inactive: [4] 90 % of control | [5] 89 % of control | dose: 200.0 mg/kg/injection, schedule: Q01DX009 (ip), vehicle: saline with Tween-80 91 % of control

COc1cc(NC(C)CCCN)c2ncc(Br)cc2c1 (stereo not drawn)
inactive: dose: 6.25 mg/kg/injection, schedule: Q01DX005 (ip), vehicle: saline 95 % of control | dose: 12.5 mg/kg/injection, schedule: Q01DX005 (ip), vehicle: saline 91 % of control

C[C@@H]1CC[C@]2(C)CC[C@]3(C)C(=CC[C@@H]4[C@@]5(C)CC[C@@H](OC(=O)c6ccc(O)cc6)C(C)(C)[C@@H]5C[C@H](O)[C@]43C)[C@@H]2[C@H]1C(=O)O
inactive: dose: 12.5 micrograms/kg/injection, schedule: Q01DX009 (ip), vehicle: saline with Tween-80 117 % of control | dose: 25.0 micrograms/kg/injection, schedule: Q01DX009 (ip), vehicle: saline with Tween-80 117 % of control | dose: 50.0 micrograms/kg/injection, schedule: Q01DX009 (ip), vehicle: saline with Tween-80 118 % of control
active: dose: 0.2 mg/kg/injection, schedule: Q01DX009 (ip), vehicle: saline with Tween-80 159 % of control | dose: 400.0 micrograms/kg/injection, schedule: Q01DX009 (ip), vehicle: saline with Tween-80 163 % of control

N#Cc1cc(Br)ccc1N
inactive: dose: 50.0 mg/kg/injection, schedule: Q01DX009 (ip), vehicle: saline 105 % of control | dose: 100.0 mg/kg/injection, schedule: Q01DX009 (ip), vehicle: saline 107 % of control | dose: 200.0 mg/kg/injection, schedule: Q01DX009 (ip), vehicle: saline 96 % of control

Cc1ccc(NC(=O)CCC(=O)C(C)C(=O)c2ccccc2)cc1C (stereo not drawn)
inactive: [6] 105 % of control | [7] 105 % of control | [8] 109 % of control

O=C1Cc2ccccc2NC(c2ccccc2)C1S(=O)(=O)c1ccccc1 (stereo not drawn)
inactive: [1] 102 % of control | [2] 102 % of control | [3] 101 % of control

C/C(=C\C(=O)O)CC(=O)O
inactive: dose: 100.0 mg/kg/injection, schedule: Q04DX003 (ip), vehicle: saline with Tween-80 92 % of control | dose: 200.0 mg/kg/injection, schedule: Q04DX003 (ip), vehicle: saline with Tween-80 97 % of control | dose: 400.0 mg/kg/injection, schedule: Q04DX003 (ip), vehicle: saline with Tween-80 88 % of control

COc1cc(NCCCCC(C)N)c2nccc(C)c2c1 (stereo not drawn)
inactive: dose: 12.5 mg/kg/injection, schedule: Q01DX009 (ip), vehicle: saline 94 % of control | dose: 25.0 mg/kg/injection, schedule: Q01DX009 (ip), vehicle: saline 92 % of control

C[C@@H]1CC=C[C@@H](NC(=O)OCc2ccccc2)[C@H]1C=O
inactive: [6] 103 % of control | [7] 99 % of control | [8] 98 % of control

OC1OC2COC(c3ccccc3)OC2C(O)C1O (stereo not drawn)
inactive: dose: 25.0 mg/kg/injection, schedule: Q01DX005 (ip), vehicle: water 100 % of control | dose: 50.0 mg/kg/injection, schedule: Q01DX005 (ip), vehicle: water 100 % of control | dose: 100.0 mg/kg/injection, schedule: Q01DX005 (ip), vehicle: water 100 % of control | dose: 200.0 mg/kg/injection, schedule: Q01DX005 (ip), vehicle: water 101 % of control | dose: 400.0 mg/kg/injection, schedule: Q01DX005 (ip), vehicle: water 107 % of control | dose: 800.0 mg/kg/injection, schedule: Q01DX005 (ip), vehicle: water 95 % of control

Cc1cc(Cl)ccc1S(=O)(=O)Cl
inactive: [4] 104 % of control | [5] 103 % of control
